Results as given in patent US20260256859A1, “COMPOSITION FOR PREVENTING, AMELIORATING, OR TREATING TUBERCULOSIS COMPRISING EXTRACT OF PHILADELPHUS SP. PLANT AS ACTIVE INGREDIENT” (priority 2023, published 2026).

How the values were obtained:
[1] = test system: Mycobacterium tuberculosis H37Rv; assay: Intracellular M. tuberculosis CFU count in infected bone marrow-derived macrophages after treatment with extract or anti-tuberculosis agent; format: cell-based; settings: C57BL/6 mouse BMDM, H37Rv MOI=1, anti-tuberculosis agent 100 ng/mL, 48 hours; FIG. 2
[2] = test system: Mycobacterium tuberculosis H37Rv; assay: MIC and FIC of Philadelphus tenuifolius leaf extract alone or combined with an anti-tuberculosis agent in Rv-infected BMDM; format: cell-based; settings: Rv-infected mouse BMDM, 48 hours; for MIC combination, RIF (antibiotic component): MIC of the antibiotic when combined with Philadelphus tenuifolius leaf extract; for MIC alone, Antibiotics: MIC = lowest concentration inhibiting more than 99% of bacterial growth

Compound | number of intracellular M. tuberculosis in mouse bone marrow-derived macrophages (CFU) vs infection control (Rv) [1] | MIC combination, RIF (antibiotic component) [2] [µg/mL] | MIC alone, Antibiotics [2] [µg/mL]
CC[C@@H](CO)NCCN[C@@H](CC)CO [ethambutol] | statistically significantly reduced | 0.3 | 4
NNC(=O)c1ccncc1 [isoniazid] | statistically significantly reduced | 0.03 | 0.1
CO[C@H]1/C=C/O[C@@]2(C)Oc3c(C)c(O)c4c(O)c(c(/C=N/N5CCN(C)CC5)c(O)c4c3C2=O)NC(=O)/C(C)=C\C=C\[C@H](C)[C@H](O)[C@@H](C)[C@@H](O)[C@@H](C)[C@H](OC(C)=O)[C@@H]1C [rifampicin] | – | 0.03 | 0.1
